{"source": "patent US8168861B2", "about": "“Compositions and methods for increasing cellulose production” (The Regents of the University of California, priority 2008, dated 2012)", "key": {"[1]": {"test_system": "Arabidopsis thaliana hypocotyl", "experiment": "Dark-grown hypocotyl growth of SRF mutants on isoxaben media", "assay_type": "in vivo", "protocol": "Data is taken from three independent experiments. Data is from hypocotyl lengths relative to wild type plants grown on the same plate and relative to mutants grown on DMSO control media. Student's t-test: *=p<0.05.\nArabidopsis thaliana ecotype Columbia-0 (Col-0) was used. Before plating seeds were surface sterilized. First, the seeds were washed in 95% ethanol for 10 minutes, which was removed then the sterilization solution was added (20% bleach, 0.05% Tween-20 (Sigma) and double distilled water) and shaken for 10 minutes. The sterilization solution was removed and the seeds were washed three times with sterile distilled water. The seeds were cold treated for 4 days at 4° C. after plating them on the plates. Two different growth media were prepared for these experiments. For the control conditions: one-half strength Murashige and Skoog (MS) salts (Sigma), 0.5% sucrose (Sigma), 0.8% phyto agar (Research Products International Corp.), 1×B5 (1,000× in double distilled water: 10% myo-inositol, 0.1% nicotinic acid and 0.1% pyroxidine HCl) and 1× Thiamin (2,000× in double distilled water: 0.2% thiamin HCl). The other growth media contained either no sucrose but all other components remained the same. Plants used in Fourier Transform Infrared (FT-IR) Microspectroscopy and hypocotyl length, were only grown on sucrose-deprived media in the dark for four days after cold treatment. For selection of mutants from the Arabidopsis Biological Resource Center (ARBC), they were first plated onto MS media containing 50 μg/ml Kanamycin to select for insertions containing the NTPII (Kanamycin resistance) gene. In the case this resistance is lost the seeds were also sown onto regular MS media containing no antibiotic and then transferred to soil after one week. Plants were then grown on soil for 2-3 weeks after transfer from the plates and they were examined for status of the T-DNA insertion. Only homozygous T3 and T4 knockout mutants were used for the following experiments.\nIsoxaben is a specific inhibitor of cellulose synthesis by affecting the function of the CesA proteins involved in primary cell wall synthesis, such as CesA3 and CesA6 (Scheible et al., 2001; Persson et al., 2007). Because SRF7 in particular is co-expressed with these same CesA genes the effects of isoxaben on SRF mutants was examined. […] The results which are in agreement with the dark-grown hypocotyl phenotypes of the srf mutants supports the hypothesis that SRF6 and SRF7 regulate CesA-mediated synthesis of the primary cell wall"}, "[2]": {"test_system": "CesA and RLK gene expression", "conditions": "isoxaben treatment, cited from earlier work"}}}
{"smiles": "CCC(C)(CC)c1cc(NC(=O)c2c(OC)cccc2OC)on1", "note": "[isoxaben]", "values": [{"measurement": "response of hypocotyl length to isoxaben vs wild type", "setting": "[1]; dominant negative of SRF7, 0.5 and 1 nM isoxaben", "result": "increased resistance"}, {"measurement": "response of hypocotyl length to isoxaben vs wild type", "setting": "[1]; dominant negative of SRF7, 5 and 10 nM isoxaben", "result": "increase sensitivity"}, {"measurement": "response of hypocotyl length to isoxaben vs wild type", "setting": "[1]; overexpression of SRF7 in srf7-1 mutant", "result": "wild type resistance"}, {"measurement": "response of hypocotyl length to isoxaben vs wild type", "setting": "[1]; srf6-1 and srf7-1 mutants (extracellular domain insertion), up to 10 μM, p<0.05", "result": "significantly more resistant"}, {"measurement": "response of hypocotyl length to isoxaben vs wild type", "setting": "[1]; srf6-2 and srf7-3 mutants", "result": "increased sensitivity"}, {"measurement": "response of hypocotyl length to isoxaben vs wild type", "setting": "[1]; srf7-2 mutant", "result": "no difference in isoxaben response"}, {"measurement": "SRF6 gene expression", "setting": "[2]; FIG. 10B", "result": "reduced gene expression"}, {"measurement": "primary cell wall CesA gene expression", "setting": "[2]; FIG. 10D", "result": "reduces primary cell wall CesA gene expression"}, {"measurement": "secondary cell wall CesA gene expression", "setting": "[2]; FIG. 10D", "result": "not the secondary cell wall CesAs"}]}
